Data reported in US20200216416A1, “QUINOLINE COMPOUNDS AS INHIBITORS OF TAM AND MET KINASES” (Array BioPharma Inc., priority 2019, published 2020).

Experiments:
[1] = target: T1, His-tagged recombinant human AXL cytoplasmic domain (Homo sapiens, UniProt P30530); experiment: AXL Enzyme Assay (LanthaScreen Eu Kinase Binding); details: averaged IC50; 60-minute incubation at 22° C.; TR-FRET
T1 construct: His-tagged recombinant human AXL cytoplasmic domain
T1 sequence (P30530 473-894 limits assumed): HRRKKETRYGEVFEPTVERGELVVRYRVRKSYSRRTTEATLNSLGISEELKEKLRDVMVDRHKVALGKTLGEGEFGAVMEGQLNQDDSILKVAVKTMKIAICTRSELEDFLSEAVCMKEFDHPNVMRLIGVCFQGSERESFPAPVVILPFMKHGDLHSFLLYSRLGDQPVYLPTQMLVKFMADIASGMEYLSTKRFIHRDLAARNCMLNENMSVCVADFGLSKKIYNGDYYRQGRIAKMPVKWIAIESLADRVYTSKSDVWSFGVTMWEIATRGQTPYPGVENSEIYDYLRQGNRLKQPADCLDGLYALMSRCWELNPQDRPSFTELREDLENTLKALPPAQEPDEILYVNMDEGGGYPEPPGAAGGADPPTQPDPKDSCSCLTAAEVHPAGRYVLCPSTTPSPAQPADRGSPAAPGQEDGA
Experimental: (§1) Compounds disclosed herein were screened for their ability to inhibit AXL kinase using Invitrogen's LanthaScreen™Eu Kinase Binding technology. His-tagged recombinant human AXL cytoplasmic domain was incubated with 20 nM Alexa-Fluor® Tracer 236 (PR9078A), 2 nM biotinylated anti-His (Cat. No. M4408), and 2 nM europium-labeled Streptavidin (Cat. No. PV5899) along with test compound in a buffer consisting of 25 mM HEPES, pH 7.4, 10 mM MgCl2, 0.01% Triton X-100, and 2% DMSO. Compounds were typically prepared in a threefold serial dilution in DMSO and added to the assay to give the appropriate final concentration. After a 60-minute incubation at 22° C., the reaction was measured using a PerkinElmer EnVision multimode plate reader via TR-FRET dual wavelength detection, and the percent of control (POC) was calculated using a ratiometric emission factor. […] The POC values are fit to a 4 parameter logistic curve and the IC50 value is point where the curve crosses 50 POC.

[2] = target: T2, His-tagged recombinant human MER cytoplasmic domain (Homo sapiens, UniProt Q12866); experiment: MER Enzyme Assay (LanthaScreen Eu Kinase Binding); details: averaged IC50; MER 5 nM; 60-minute incubation at 22° C.; TR-FRET
T2 construct: His-tagged recombinant human MER cytoplasmic domain
T2 sequence (Q12866 527-999 limits assumed): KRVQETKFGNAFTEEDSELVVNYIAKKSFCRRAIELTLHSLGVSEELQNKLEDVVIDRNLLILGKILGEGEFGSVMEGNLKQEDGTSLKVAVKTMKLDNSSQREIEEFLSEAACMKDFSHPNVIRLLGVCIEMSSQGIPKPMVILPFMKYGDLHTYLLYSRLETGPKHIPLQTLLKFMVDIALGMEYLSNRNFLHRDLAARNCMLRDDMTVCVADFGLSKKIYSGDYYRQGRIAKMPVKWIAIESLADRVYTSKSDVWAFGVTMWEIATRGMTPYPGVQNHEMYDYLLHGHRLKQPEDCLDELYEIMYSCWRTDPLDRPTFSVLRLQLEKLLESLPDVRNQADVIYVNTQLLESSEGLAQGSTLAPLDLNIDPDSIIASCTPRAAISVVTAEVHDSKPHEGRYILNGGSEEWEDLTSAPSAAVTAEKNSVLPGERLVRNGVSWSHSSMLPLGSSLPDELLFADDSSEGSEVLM
Experimental: as §1, with “human MER” for “human AXL”, “domain (5 nM)” for “domain”, “mM MgCl 2,” for “mM MgCl2,”

[3] = target: T3, GST-tagged recombinant human TYRO3 kinase domain (Homo sapiens, UniProt Q06418); experiment: TYRO3 Enzyme Assay (LanthaScreen Eu Kinase Binding); details: averaged IC50; TYRO3 5 nM; 60-minute incubation at 22° C.; TR-FRET
T3 construct: GST-tagged recombinant human TYRO3 kinase domain; purchased Carna PR7480A
T3 sequence (Q06418 518-790 limits assumed): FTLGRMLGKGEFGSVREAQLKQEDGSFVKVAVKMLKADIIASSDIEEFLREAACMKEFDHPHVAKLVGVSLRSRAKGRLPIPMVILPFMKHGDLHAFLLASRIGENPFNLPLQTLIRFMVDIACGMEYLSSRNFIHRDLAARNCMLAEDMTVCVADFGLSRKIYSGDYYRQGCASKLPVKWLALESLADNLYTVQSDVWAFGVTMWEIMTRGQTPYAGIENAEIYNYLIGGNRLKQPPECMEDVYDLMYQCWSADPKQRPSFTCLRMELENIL
Experimental: Compounds disclosed herein were screened for their ability to inhibit TYRO3 kinase using Invitrogen's LanthaScreenTM Eu Kinase Binding technology. GST-tagged recombinant human TYRO3 kinase domain from Carna (5 nM; Cat. No. P[…]) was incubated with 20 nM Alexa-Fluor® Tracer 236 (P[…]) and 2 nM Europium-anti-GST (Cat. No. A15116) along with test compound in a buffer consisting of 25 mM HEPES, pH 7.4, 10 mM MgCl2, 0.01% Triton X-100, and 2% DMSO. Compounds are typically prepared in a threefold serial dilution in DMSO and added to the assay to give the appropriate final concentration. After a 60-minute incubation at 22° C., the reaction was measured using a PerkinElmer EnVision multimode plate reader via TR-FRET dual wavelength detection, and the percent of control (POC) calculated using a ratiometric emission factor. […] The POC values were fit to a 4 parameter logistic curve and the IC50 value is point where the curve crosses 50 POC.

Compound: COc1ccc2nccc(Oc3ccc(NC(=O)c4cn(C(C)C)cc(-c5ccc(F)cc5)c4=O)nc3)c2c1 [Example 40, 5-(4-fluorophenyl)-1-isopropyl-N-(5-((6-methoxyquinolin-4-yl)oxy)pyridin-2-yl)-4-oxo-1,4-dihydropyridine-3-carboxamide]
- IC50 [1]: 6 nM
- IC50 [2]: 19 nM
- IC50 [3]: 19 nM
